# Data from US7638494B2, “G-type peptides to ameliorate atherosclerosis” (The Regents of the University of California, priority 2002, dated 2009).
# Where two headings read alike, the source gives them in different places.
# How the values were obtained:
# [1] = test system: Human aortic endothelial cells; assay: Prevention of LDL-induced monocyte chemotactic activity by pre-treatment (pre-incubation) of artery wall cells; type: cell-based; details: pre-incubation 6 hrs, washed, then control human LDL 200 μg protein/ml overnight; relative to D-4F (FIG. 2)
# Procedure: FIG. 2 illustrates a comparison of the effect of D-4F with the effect of D-J336 on the prevention of LDL induced monocyte chemotactic activity in a pre-incubation. Human aortic endothelial cells were pre-incubated with D-J336 or D-4F at 4, 2, and 1 μg/ml for DJ336 or 100, 50, 25, and 12.5 μg/ml for D-4F for 6 hrs. The cultures were then washed and were incubated with medium alone (no addition), or with control human LDL (200 μg protein/ml), or with control human LDL+control human HDL (350 μg HDL protein/ml) as assay controls. The wells that were pre-treated with peptides received the control human LDL at 200 μg protein/ml. Following overnight incubation, the supernatants were assayed for monocyte chemotactic activity.
# [2] = test system: LDL receptor null mice; assay: HDL protective capacity in LDL receptor null mice given peptide in drinking water; type: in vivo
# Procedure: D-4F designated as F, or the apoJ peptide made from D amino acids (D-J336, designated as J) was added to the drinking water of LDL receptor null mice (4 per group) at 0.25 or 0.5 mg per ml of drinking water. After 24- or 48-hrs blood was collected from the mice and their HDL was isolated and tested for its ability to protect against LDL-induced monocyte chemotactic activity. Assay controls included culture wells that received no lipoproteins (no addition), or control human LDL alone (designated as LDL, 200 μg cholesterol/ml), or control LDL+control human HDL (designated as +HDL, 350 μg HDL cholesterol). For testing the mouse HDL, the control LDL was added together with mouse HDL (+F HDL or +J HDL) to artery wall cell cultures. The mouse HDL was added at 100 μg cholesterol/ml respectively.
# [3] = test system: apo E null mice; assay: Protection against LDL-induced monocyte chemotactic activity by HDL from apo E null mice given oral peptides; type: in vivo; details: for potency compared with D-4F in enhancing HDL protective capacity: apo E null mice, added to the drinking water (FIG. 4)
# Procedure: FIG. 4 illustrates the effect of oral apoA-1 peptide mimetic and apoJ peptide on HDL protective capacity. […] After 24 hrs blood was collected, plasma fractionated by FPLC and fractions containing LDL (designated as mLDL for murine LDL) and fractions containing HDL (designated as mHDL) were separately pooled and HDL protective capacity against LDL oxidation as determined by LDL-induced monocyte chemotactic activity was determined. For the assay controls the culture wells received no lipoproteins (no additions), mLDL alone (at 200 μg cholesterol/ml), or mLDL+standard normal human HDL (designated as Cont. h HDL, at 350 μg HDL cholesterol/ml).
# For testing the murine HDL, mLDL together with murine HDL (+F mHDL or +J mHDL) were added to artery wall cell cultures. […] The murine HDL was used at 100 μg cholesterol/ml.
# [4] = test system: apo E null mice; assay: LDL susceptibility to oxidation: ability of LDL from apoE null mice given oral peptides to induce monocyte chemotactic activity; type: in vivo; details: added to the drinking water, 24 hrs (FIG. 5)
# Procedure: FIG. 5 illustrates the effect of oral apo A-1 peptide mimetic and apoJ peptide on LDL susceptibility to oxidation. […] After 24 hrs blood was collected from the mice shown in FIG. 4, plasma fractionated by FPLC and fractions containing LDL (designated as mLDL for murine LDL) were pooled and LDL susceptibility to oxidation as determined by induction of monocyte chemotactic activity was determined.
# Murine LDL, mLDL, from mice that received the D-4F mLDL) or those that received the apoJ peptide (J mLDL) were added to artery wall cell cultures.
# [5] = test system: apo E null mice; details: added to the drinking water, 24 hrs, human artery wall co-culture (FIG. 6)
# Procedure: FIG. 6 illustrates the effect of oral apoA-1 peptide mimetic and apoJ peptide on HDL protective capacity. […] After 24 hrs blood was collected, plasma fractionated by FPLC and fractions containing HDL (designated as mHDL) were pooled and HDL protective capacity against PAPC oxidation as determined by the induction of monocyte chemotactic activity was determined. For the assay controls the culture wells received no lipoproteins (no additions), the phospholipid PAPC at 20 μg /ml+HPODE, at 1.0 μg/ml, or PAPC+HPODE plus standard normal human HDL (at 350 μg HDL cholesterol/ml and designated as +Cont. h HDL).
# For testing the murine HDL, PAPC+HPODE together with murine HDL (+F mHDL or +J mHDL) were added to artery wall cell cultures. […] The murine HDL was used at 100 μg cholesterol/ml.
# [6] = test system: PON1; details: apo E null mice, added to the drinking water, 24 hrs, plasma (FIG. 7)
# Procedure: After 24 hrs blood was collected and plasma was assayed for PON1 activity.
substance,measurement,setting,value
Ac-LLEQLNEQFNWVSRLANLTQGE-NH2 [D-J336],times more potent than D-4F in preventing LDL oxidation by artery wall cells,[1],10-25 times
same,"activity of mouse HDL in preventing control LDL from inducing monocyte chemotactic activity, compared with control human HDL","[2]; LDL receptor null mice, 0.25 or 0.5 mg per ml drinking water, 24 or 48 hrs, mouse HDL at 100 μg/ml",as active as 350 μg/ml of control human HDL
same,effectiveness compared with D4F in preventing LDL-induced monocyte chemotactic activity,[2]; given orally to LDL receptor null mice (FIG. 3),essentially as effective as D4F
same,potency compared with D-4F in enhancing HDL protective capacity,[3],as potent as D4F
same,potency compared with D-4F in enhancing HDL protective capacity,[3]; listed as D-J peptide,as potent as D-4F
same,activity of murine HDL compared with normal human HDL against LDL-induced monocyte chemotactic activity,"[3]; apoE null mice, peptide in drinking water, 24 hrs, murine HDL at 100 μg/ml",as active as 350 μg/ml of normal human HDL
same,potency compared with D-4F in rendering LDL resistant to oxidation by human artery wall cells (induction of monocyte chemotactic activity),[4],lightly more potent than D-4F
same,potency compared with D-4F in rendering LDL resistant to oxidation by human artery wall cells (induction of monocyte chemotactic activity),[4]; listed as DJ336,slightly more potent than D4F
same,potency compared with D-4F in causing HDL to inhibit oxidation of PAPC by HPODE (generation of monocyte chemotactic activity),[5],as potent as D-4F
same,potency compared with D-4F in causing HDL to inhibit oxidation of PAPC by HPODE (generation of monocyte chemotactic activity),[5]; listed as DJ336,as potent as D4F
same,potency compared with D-4F in increasing paraoxonase activity,[6],at least as potent as D-4F
same,potency compared with D-4F in increasing paraoxonase activity,[6]; listed as DJ336,at least as potent as D4F
